Laboratory results reported in patent US20230414502A1, “Method for Preparing an Aqueous Nanocrystalline Suspension Containing Nanocrystals of Pharmaceutically Active Ingredient and a Combination of Stabilizers, Aqueous Nanocrystalline Suspension and Methods of Use Thereof” (Vysoka skola chemicko-technologicka v Praze, priority 2022, published 2023).
Entries after “also recorded” stand apart in the source; their conditions may differ.

Assays:
[1] = literature values, cell line not given; read-out: IC50 documented for reference drugs; cited from earlier work
[2] = Microscopy of precipitation/recrystallization in DMEM + 10% FBS or PBS, no cells; type: physicochemical; settings: for Recrystallization of API added from DMSO into DMEM + 10% FBS (microscopy): 1% DMSO, 100 μg/mL abiraterone acetate and telmisartan, 500 μg/mL others, no cells; for Solubility in DMSO (in words): 500 μg/mL at most 1% DMSO not reachable
macrophages J774A.1 = test: Microscopy of samples incubated with macrophages; type: cell-based, mouse; settings: for Recrystallization/precipitation of API added from DMSO, tested with J774A.1 (microscopy): 1% DMSO, 100 or 500 μg/mL, DMEM + 10% FBS
Procedure: For the purpose of the crystallization form DMSO solution study, the J774A.1 cells in the DMEM+10% FBS+1% AA medium were inoculated in a 96 well-plate with a glass-bottom (Cellvis, P96-1.5H-N) with a density of 2×10^4 cells/well and left to adhere overnight. Then, the medium was removed by aspiration, and nanocrystal samples pre-diluted in the fresh medium were added (from 500 μg/mL decreasing in half concentration trend; 90 μL/well). In some cases (abiraterone acetate, telmisartan), it was not possible to reach 500 μg/mL API concentration together with total DMSO content of maximum 1% (1% DMSO is top limit standard in biochemical testing considering the DMSO toxicity and effect on the cell viability and performance) and therefore these substances were tested at 100 μg/mL concentration. Here the great potential of nanocrystals is clearly presented, since the nanocrystal samples were possible to be prepared and tested at 500 μg/mL even in cases where the DMSO solvents would not be accepted for in vitro testing. If possible, all samples were tested at concentration 500 μg/mL (from nanocrystals or from DMSO stock solutions) and incubated in the well-plate for 18 h.

SMILES	IC50 [1] [µM]	Recrystallization of API added from DMSO into DMEM + 10% FBS (microscopy) [2]	other results
O=c1[nH]cc(F)c(=O)[nH]1 [5-fluorouracil]	39	–	–
CCOc1nc2cccc(C(=O)OC(C)OC(=O)OC3CCCCC3)c2n1Cc1ccc(-c2ccccc2-c2nnn[nH]2)cc1 (centres unmarked) [Candesartan cilexetil]	–	did not form macroscopic crystals	–
COc1cc(C2Oc3cc([C@H]4Oc5cc(O)cc(O)c5C(=O)[C@@H]4O)ccc3OC2CO)ccc1O (some centres unmarked) [Silybinin]	180	–	–
CC(C)(C)c1cc(C(C)(C)C)c(NC(=O)c2c[nH]c3ccccc3c2=O)cc1O [Ivacaftor]	–	–	Recrystallization/precipitation of API added from DMSO, tested with J774A.1 (microscopy) (macrophages J774A.1): most significant recrystallization/precipitation; also recorded: precipitation/recrystallization from DMSO occurred and was well detectable; Effect on J774A.1 cells, API added as DMSO solution (macrophages J774A.1; 8-125 μg/mL): causes cell death (membrane blobbing)
CCCc1nc2c(C)cc(-c3nc4ccccc4n3C)cc2n1Cc1ccc(-c2ccccc2C(=O)O)cc1 [Telmisartan]	–	did not form macroscopic crystals	Solubility in DMSO (in words) [2]: low solubility
COc1cc(/C=C/C(=O)CC(=O)/C=C/c2ccc(O)c(OC)c2)ccc1O [Curcumin]	–	–	Recrystallization/precipitation of API added from DMSO, tested with J774A.1 (microscopy) (macrophages J774A.1): most significant recrystallization/precipitation; also recorded: precipitation/recrystallization from DMSO occurred and was well detectable
N.N.[Cl][Pt][Cl] [cisplatin]	181	–	–
CC(=O)O[C@H]1CC[C@@]2(C)C(=CC[C@@H]3[C@@H]2CC[C@]2(C)C(c4cccnc4)=CC[C@@H]32)C1 [Abiraterone acetate]	–	formation of both new crystals and solid amorphous phase occurs	Solubility in DMSO (in words) [2]: low solubility
